Where “and” joins values, the source holds several entries; their conditions need not be identical. Equal values may be shown once.

One test relates to DON content. In words: Field trial winter wheat 2017, deoxynivalenol quantification by LC-MS/MS. Format: in vivo. As to conditions: Laacherhof 2017, application at growth stage 63-65, J1446 500 g/ha, prothioconazole 125 g a.i./ha, control 3583 ppb DON content. As to the method:
(§1) Impact of Different Compounds on Fusarium Infestation and the DON Content; Field Trial Winter Wheat 2017 at the Laacherhof, Germany
(§2) Application was done on Jun. 1, 2017 at growth stage 63-65. Evaluation was done Jun. 20, 2017. Quantification of deoxynivalenol was performed by LC-MS/MS analysis using a Waters UPLC coupled to a Sciex API4000 mass spectrometer. The column used was a Waters Acquity HSS T3 (2.1×50 mm, 1.8 μm) and solvents were 2 mM ammonium acetate/1% acedic acid and methanol/2 mM ammonium acetate/1% acetic acid used in a 4 min gradient. The mass spectrometer was operated in negative ionization mode (MRM transitions: deoxynivalenol 355>265, 3-acetyl-deoxynivalenol 387>307, respectively). Quantification was performed by external calibration using reference compounds.
(§3) On the other hand, whereas infestation was lower upon application of C. rosea J1446 alone (45 vs. 63%), DON reduction after application of the combination of prothioconazole and C. rosea J1446 was even bigger (60 vs. 30%).

The subject of the next test is Fusarium. In words: Field trial winter wheat 2017, visual assessment of Fusarium control. Conditions: Laacherhof 2017, application at growth stage 63-65, evaluation Jun. 20, 2017, J1446 500 g/ha, prothioconazole 125 g a.i./ha, control 38% infestation. The class given is in vivo. As to the method: as §1, §2, §3

`OC(Cc1ccccc1Cl)(Cn1nc[nH]c1=S)C1(Cl)CC1` (stereo not drawn) [Prothioconazole, prothioconazole]: the “DON Reduction” value with DON content was 41%; in the test with DON content (listed as prothioconazole), 40% and 41%. The “Visual Assessment Fusarium-Control” value in the test on Fusarium worked out at 66%.

The values are drawn from patent US20210176992A1, “FU[…] COMBINATION OF A CL[…] AND AN AZOLE” (Bayer Aktiengesellschaft, priority 2018, published 2021).
